± gives the expanded uncertainty stated by the source.

This data set can be described thus: mn = molality of the nth substance listed, in mol/kg. To be noted: 298.15 K, 101 kPa, Liquid; for molar conductivity: Alternating current cell with electrodes; for mass density: Pycnometric method.

On to `CCCCn1cc[n+](C)c1.F[B-](F)(F)F` [1-butyl-3-methylimidazolium tetrafluoroborate] + O, for which the molar conductivity by setting is: (m1 = 0.05) 0.00906 ± 0.00054 S·m2/mol; (m1 = 0.1) 0.0085 ± 0.00051 S·m2/mol; (m1 = 0.15) 0.008 ± 0.00048 S·m2/mol; (m1 = 0.25) 0.00714 ± 0.00043 S·m2/mol; (m1 = 0.5) 0.00547 ± 0.00033 S·m2/mol; (m1 = 0.75) 0.00419 ± 0.00025 S·m2/mol. The molar conductivity (m1 = 1) came out at 0.00389 ± 0.00023 S·m2/mol. In addition, the mass density – broadly, the mass of a sample divided by its volume – (m1 = 0.05) is reported as 999 ± 0.89 kg/m3; the mass density (m1 = 0.1) is 1000.85 ± 0.89 kg/m3; the mass density (m1 = 0.15) is reported as 1002.63 ± 0.9 kg/m3; the mass density (m1 = 0.25) was 1006.1 ± 0.9 kg/m3; the mass density (m1 = 0.5) stood at 1014.2 ± 0.91 kg/m3; the mass density (m1 = 0.75) turned out to be 1021.57 ± 0.91 kg/m3. The mass density (m1 = 1) is listed as 1028.25 ± 0.92 kg/m3.

With `OC[C@H]1O[C@@](CO)(O[C@H]2O[C@H](CO)[C@@H](O)[C@H](O)[C@H]2O)[C@@H](O)[C@@H]1O` [D-sucrose] + O, the mass density came out at 999.72 ± 0.88 kg/m3 (m1 = 0.02); 1004.87 ± 0.89 kg/m3 (m1 = 0.06); 1009.9 ± 0.89 kg/m3 (m1 = 0.1); 1016.06 ± 0.9 kg/m3 (m1 = 0.15); 1022.12 ± 0.91 kg/m3 (m1 = 0.2); 1027.95 ± 0.91 kg/m3 (m1 = 0.25).

Values taken from the NIST ThermoML archive (doi:10.1021/je800622e).
